For data set [1], the target named is T1, BCRP (ABCG2) (Homo sapiens, UniProt Q9UNQ0).
T1 sequence (Q9UNQ0 1-655): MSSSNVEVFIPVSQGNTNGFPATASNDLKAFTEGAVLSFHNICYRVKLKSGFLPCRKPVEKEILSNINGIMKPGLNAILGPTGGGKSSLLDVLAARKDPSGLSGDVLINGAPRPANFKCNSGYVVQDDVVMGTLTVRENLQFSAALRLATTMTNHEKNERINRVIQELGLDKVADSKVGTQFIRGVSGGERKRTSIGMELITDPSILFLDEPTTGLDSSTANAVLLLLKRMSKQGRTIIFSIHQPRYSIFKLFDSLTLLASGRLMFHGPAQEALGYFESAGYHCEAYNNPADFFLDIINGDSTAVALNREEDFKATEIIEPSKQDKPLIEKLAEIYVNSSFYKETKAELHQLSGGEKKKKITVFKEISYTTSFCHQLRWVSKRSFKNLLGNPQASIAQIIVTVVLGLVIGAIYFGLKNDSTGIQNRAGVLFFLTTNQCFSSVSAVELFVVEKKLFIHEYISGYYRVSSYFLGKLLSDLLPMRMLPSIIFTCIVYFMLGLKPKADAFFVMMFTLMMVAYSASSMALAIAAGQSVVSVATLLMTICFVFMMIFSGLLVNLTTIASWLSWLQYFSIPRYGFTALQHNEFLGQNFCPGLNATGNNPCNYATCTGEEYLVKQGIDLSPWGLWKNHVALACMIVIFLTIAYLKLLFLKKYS
The experiment in a line: in vitro. The source says:
The uptake of ATP is plotted in pmol/mg protein/min. […] The uptake of a [3H] or [32P]-radiolabelled ATP by an ABC drug transporter selected from the group consisting of BCRP (ABCG2) or MRP1-6 (ABCC1-6) into membrane vesicles (stably overexpressing one type of ABC transporter) under conditions of low pH (compared with physiological pH) can be studied by radiochemical analysis. Subsequently, the effect of a test compound on the ABC drug transporter-mediated ATP release can be studied at different pH values (not shown in figure). • Figure 6: Schematic representation of the ABC drug transporter mediated-ATP-release assay. The transport of a [3H] or [32P]-radiolabelled ATP by an ABC drug transporter selected from the group consisting of BCRP (ABCG2) or MRP1-6 (ABCC1-6) into MDCKII cells (stably overexpressing one type of ABC drug transporter) under conditions of low extracellular pH (compared with physiological pH) and/or hypoxic conditions (0-1% O2, 5% CO2, 94-95% N2) (compared with normoxic conditions (20% O2, 5% CO2, 75% N2)) can be studied by radiochemical analysis or HPLC. Subsequently, the effect of a test compound on the ABC drug transporter-mediated ATP release can be studied at different pH values (not shown in figure). • Figure 7: Schematic representation of ABCG2 expression in normal tissues. Arrows indicate direction of substrate transport. In the brain and testis, ABCG2 is expressed mainly in the blood vessel endothelium, forming part of the blood-brain and blood-testis barrier, respectively. (from: Robey et al. Curr Pharm Biotechnol 2011) • Figure 8: Table 1: Cellular localization and function of ion exchange pumps • Figure 9: Table 2: Protein and/or gene expression of MRP/Mrp isoforms in various brain compartments in human and in mouse and in rat. Table adapted from Dallas et al. (45). • Figure 10: Chemical structure of Danshen compounds • Fig. 10 A: Chemical structures of compounds from Danshen (Salvia miltiorrhiza) • Fig. 10 B: Chemical structures of main lipophilic compounds from Danshen • Fig. 10 C: Chemical structure of main hydrophilic compounds from Danshen • Fig. 10 D: Chemical structure of Magnesium lithospermate B • Fig. 10 E: Chemical structure of salvianolic acid B • Fig. 10 F: Chemical structure of Indirubin
Membrane vesicles from (ABC transporter-transfected) Sf9 cells were prepared in isotonic vesicle buffer consisting of 50 mM Tris and 250 mM sucrose adjusted to pH 7.4. Vesicular transport assays were performed in vesicular transport assay buffer (50 mM HEPES/KOH, 100 mM KCI) as described before (Breedveld et al., 2004, 2007). The vesicular transport assay buffer and the solutions of all other reagents used in transport assays were adjusted to the appropriate pH (pH 6 or pH 7.4) by adding aliquots of HCl (37% w/w) for low pH. The pH of the final solution was controlled (Breedveld et al., 2007). […]
Curve fitting was performed by nonlinear regression analysis using the software package Graphpad Prism version 4 (GraphPad Software, San Diego, USA). Data from concentration-dependent transport assays were analyzed according to the classical Michaelis-Menten model (eq. 1) (Rowland and Tozer, 1995): v = (Vmax x [S])/(Km + [S]) [formula] where v is the rate of transport, Vmax is the maximum velocity, S is the substrate concentration, and Km is the substrate concentration at half-maximum velocity.

The target of data set [2] is T1, BCRP (ABCG2). Also on record: made in house; host or cells: Sf9 insect cells (membrane vesicles). As to conditions: 1 µM MTX; cited from earlier work.
For data set [3] the following is noted: cited from earlier work.
Substrate in data set [4]: Nc1ncnc2c1ncn2[C@@H]1O[C@H](COP(=O)(O)OP(=O)(O)OP(=O)(O)O)[C@@H](O)[C@H]1O
The experiment in a line: cells, lysate or membranes named. As to conditions: other: pH 6, saturable transport, 37°C, 5 min (Fig. 2A).

Read-outs that look alike come from different tables or passages of the source. Where only a bound is given, the exact number is not on record here.

Take `CN(Cc1cnc2nc(N)nc(N)c2n1)c1ccc(C(=O)N[C@@H](CCC(=O)O)C(=O)O)cc1` [MTX, methotrexate]: the inhibition at 100 µM in data set [1] (pH 6) is about 46%. Also, the “ATP-dependent transport by BCRP at pH 5.1 relative to physiological pH” value in data set [2] is recorded as 7 fold.
Regarding `Nc1ncnc2c1ncn2[C@@H]1O[C@H](COP(=O)(O)OP(=O)(O)OP(=O)(O)O)[C@@H](O)[C@H]1O` [[^3H]ATP, adenosine 5'-triphosphate], in data set [1] (0.5 min, 100 µM, pH 6), the “transport by BCRP at pH 6 relative to physiological pH” value was determined as 3.8 fold.
Consider `Nc1ncnc2c1ncn2[C@@H]1O[C@H](COP(=O)(O)OP(=O)(O)OP(=O)(O)O)[C@@H](O)[C@H]1O` [[^32P]-γ-labeled-ATP, adenosine 5'-triphosphate], for which the “net uptake into BCRP membrane vesicles” value in data set [1] (0.5 min, 100 µM, pH 6) came out at 80 pmol/mg protein; in data set [1] (10 min, 100 µM, pH 6), 194 pmol/mg protein.
`COc1ccnc(C[S+]([O-])c2nc3ccc(OC(F)F)cc3[nH]2)c1OC` (stereo not shown) [pantoprazole] showed an IC50 in data set [1] of over 1000 µM.
As for `CCN(CC)CCNC(=O)c1c(C)[nH]c(/C=C2\C(=O)Nc3ccc(F)cc32)c1C` [sunitinib], the “increase of brain accumulation” value is recorded as 2.3 fold in data set [3] (Abcb1a/b(-/-) mice) and 23 fold in data set [3] (Abcb1a/b/Abcg2(-/-) mice).

B1: BCRP (ABCG2) (Homo sapiens) (protein)
chain: MSSSNVEVFIPVSQGNTNGFPATASNDLKAFTEGAVLSFHNICYRVKLKSGFLPCRKPVEKEILSNINGIMKPGLNAILGPTGGGKSSLLDVLAARKDPSGLSGDVLINGAPRPANFKCNSGYVVQDDVVMGTLTVRENLQFSAALRLATTMTNHEKNERINRVIQELGLDKVADSKVGTQFIRGVSGGERKRTSIGMELITDPSILFLDEPTTGLDSSTANAVLLLLKRMSKQGRTIIFSIHQPRYSIFKLFDSLTLLASGRLMFHGPAQEALGYFESAGYHCEAYNNPADFFLDIINGDSTAVALNREEDFKATEIIEPSKQDKPLIEKLAEIYVNSSFYKETKAELHQLSGGEKKKKITVFKEISYTTSFCHQLRWVSKRSFKNLLGNPQASIAQIIVTVVLGLVIGAIYFGLKNDSTGIQNRAGVLFFLTTNQCFSSVSAVELFVVEKKLFIHEYISGYYRVSSYFLGKLLSDLLPMRMLPSIIFTCIVYFMLGLKPKADAFFVMMFTLMMVAYSASSMALAIAAGQSVVSVATLLMTICFVFMMIFSGLLVNLTTIASWLSWLQYFSIPRYGFTALQHNEFLGQNFCPGLNATGNNPCNYATCTGEEYLVKQGIDLSPWGLWKNHVALACMIVIFLTIAYLKLLFLKKYS
On to B1, for which, in data set [4], the Michaelis constant (Km) is 2000 µM and the Vmax amounted to 1.5 nmoles/mg protein/min.

As usually defined, the inhibition is the relative decrease from the control value, in per cent. Low readings indicate little suppression, high ones strong suppression. One may read the IC50 as the concentration that gives 50% inhibition. The Km is the concentration of substrate that gives half-maximal velocity.

The values are drawn from EP2829880A1, “Method for identifying modulators of BCRP/ABCG2-mediated ATP release and use of said modulators for treating diseases” (Energeia Biosciences, priority 2013, dated 2015).
